Read-outs that look alike come from different tables or passages of the source.
Tests used:
[1] = target: DAT S422A (Homo sapiens, UniProt Q01959, S422A); assay: [3H]Dopamine transport assay, DAT S422A mutant; type: cell-based
[2] = tested on: DAT; conditions: cited from earlier work
[3] = target: DAT F326A (Homo sapiens, UniProt Q01959, F326A); assay: [3H]Dopamine transport assay, DAT F326A mutant; type: cell-based; conditions: for IC50: IC50 of [3H]dopamine uptake, F326A mutant of DAT, HEK-293F cells, n = 3
[4] = tested on: NET; conditions: cited from earlier work
[5] = tested on: SERT; conditions: cited from earlier work
[6] = target: DAT WT (Homo sapiens, UniProt Q01959); assay: [3H]Dopamine transport assay, wild-type DAT; type: cell-based
[7] = target: DAT V152A (Homo sapiens, UniProt Q01959, V152A); assay: [3H]Dopamine transport assay, DAT V152A mutant; type: cell-based
[8] = tested on: DAT; assay: Reported inhibition of DAT; type: biochemical; conditions: relative to tesofensine
[9] = target: DAT (Homo sapiens, UniProt Q01959); conditions: close analog of nefazodone; no reference given; cited from earlier work
[10] = target: SERT; conditions: read-out: reported equilibrium dissociation constant (KD) for SERT; cited from earlier work
[11] = tested on: SERT; conditions: ref 75 (El-Kasaby A, et al.); cited from earlier work

DAT F326A, sequence (Q01959 57-620 F326A limits assumed): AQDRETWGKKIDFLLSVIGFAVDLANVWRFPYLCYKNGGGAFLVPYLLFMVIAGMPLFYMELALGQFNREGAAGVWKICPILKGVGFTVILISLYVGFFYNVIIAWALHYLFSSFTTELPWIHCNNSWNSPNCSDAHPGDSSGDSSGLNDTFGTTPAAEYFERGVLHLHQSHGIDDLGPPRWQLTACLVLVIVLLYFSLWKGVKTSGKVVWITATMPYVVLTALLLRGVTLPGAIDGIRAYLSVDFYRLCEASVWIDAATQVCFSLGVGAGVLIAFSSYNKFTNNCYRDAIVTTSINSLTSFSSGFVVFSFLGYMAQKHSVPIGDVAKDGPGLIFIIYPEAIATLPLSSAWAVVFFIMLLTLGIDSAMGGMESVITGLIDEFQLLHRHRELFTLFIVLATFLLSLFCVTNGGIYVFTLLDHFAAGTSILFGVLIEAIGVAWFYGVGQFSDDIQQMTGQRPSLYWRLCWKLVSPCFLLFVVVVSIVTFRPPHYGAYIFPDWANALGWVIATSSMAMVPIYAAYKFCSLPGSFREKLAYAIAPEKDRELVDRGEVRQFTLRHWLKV
DAT WT, sequence (Q01959 57-620 limits assumed): as the sequence (Q01959 57-620 F326A limits assumed) above, with A270F counted along it
DAT S422A, sequence (Q01959 57-620 S422A limits assumed): as the sequence (Q01959 57-620 F326A limits assumed) above, with A270F, S366A counted along it
DAT V152A, sequence (Q01959 57-620 V152A limits assumed): as the sequence (Q01959 57-620 F326A limits assumed) above, with V96A, A270F counted along it
DAT (Homo sapiens, UniProt Q01959), sequence (Q01959 whole entry): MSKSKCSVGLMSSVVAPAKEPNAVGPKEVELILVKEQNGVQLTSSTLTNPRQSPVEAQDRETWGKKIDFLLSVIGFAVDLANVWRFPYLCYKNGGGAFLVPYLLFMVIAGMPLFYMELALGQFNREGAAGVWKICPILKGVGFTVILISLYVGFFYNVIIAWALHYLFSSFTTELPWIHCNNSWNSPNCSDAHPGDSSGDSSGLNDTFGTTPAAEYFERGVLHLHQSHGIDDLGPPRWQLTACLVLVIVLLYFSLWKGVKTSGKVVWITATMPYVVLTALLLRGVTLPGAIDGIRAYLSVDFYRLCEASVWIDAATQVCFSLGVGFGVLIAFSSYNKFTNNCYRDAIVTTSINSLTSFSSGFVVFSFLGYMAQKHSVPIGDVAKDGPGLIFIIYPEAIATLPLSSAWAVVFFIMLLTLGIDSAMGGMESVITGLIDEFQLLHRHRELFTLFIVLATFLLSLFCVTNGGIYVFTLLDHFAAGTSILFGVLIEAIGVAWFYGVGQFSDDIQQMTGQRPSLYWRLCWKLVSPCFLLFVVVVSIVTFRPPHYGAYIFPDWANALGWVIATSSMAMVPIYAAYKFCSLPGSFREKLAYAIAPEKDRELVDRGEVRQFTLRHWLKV

SMILES: N[C@@H]1CC[C@@H](c2ccc(Cl)c(Cl)c2)c2ccccc21 [dasotraline]
- IC50 [1]: 4.7 µM
- fold increase of IC50 versus DAT WT ([1]; S422A mutant versus WT): 1900 fold
- IC50 ([2]; read-out: reported IC50 on DAT): 3 nM
- fold increase of IC50 (decrease of inhibitory potency) versus DAT WT ([3]; F326A mutant versus WT): approximately 1500 fold
- IC50 [3]: 3740 nM
- IC50 ([4]; read-out: reported IC50 on NET): 4 nM
- IC50 ([5]; read-out: reported IC50 on SERT): 15 nM
- IC50 [6]: 2.43 nM

SMILES: c1ccc2cc([C@]34CNC[C@H]3C4)ccc2c1 [centanafadine]
- IC50 [7]: 246 nM
- change of IC50 versus DAT WT ([7]; V152A mutant versus WT): nearly doubling
- IC50 ([2]; read-out: IC50 of dopamine reuptake): 38 nM
- IC50 [3]: 2090 nM
- IC50 ([4]; read-out: IC50 of norepinephrine reuptake): 6 nM
- IC50 ([5]; read-out: IC50 of serotonin reuptake): 83 nM
- IC50 [6]: 116 nM

SMILES: COC(=O)[C@H]1[C@@H](OC(=O)c2ccccc2)C[C@@H]2CC[C@H]1N2C [cocaine]
- fold lower affinity for DAT than tesofensine [8]: 50 fold

SMILES: O=c1n(CCCN2CCN(c3cccc(Cl)c3)CC2)nc2ccccn12 [trazodone]
- affinity for DAT compared with nefazodone [9]: markedly reduced

SMILES: CCc1nn(CCCN2CCN(c3cccc(Cl)c3)CC2)c(=O)n1CCOc1ccccc1 [nefazodone]
- Kd [10]: 200 nM
- mode of inhibition of SERT [11]: non-competitive

Reference: article PMC12769732 (Nature Communications, 2025)
